Measurements published in patent publication US5210193A, “Piperazine derivatives” (American Cyanamid Company, priority 1990, dated 1993).
Values after ≈ are worked out from the molar mass of the structure shown.

What was measured:
Assay in all cases: in vitro antibacterial MIC, agar plate dilution
Assay type in all cases: cell-based
[1] = system: Pseudomonas aeruginosa VGH 84-4; conditions: Pseudomonas aeruginosa, VGH844, 18 h, 35° C., read-out: MIC
Procedure: (§1) The in vitro antimicrobial spectrum of the compounds of ths invention were determined by the agar plate dilution method with Mueller-Hinton agar and an inoculum of each test organism of approximately 10^4 colony forming units delivered by the Steers replicating device. The minimal inhibitory concentration (MIC) in mcg/ml is defined as the lowest concentration of test compound that inhibited visible growth after 18 hours incubation at 35° C. Results are given in Table I, with the test compounds identified by the number of their hereinafter described examples.

[2] = system: Escherichia coli CMC 84-11; conditions: Escherichia coli, CMC8411, 18 h, 35° C., read-out: MIC
Procedure: as §1

[3] = system: Staphylococcus aureus Smith; conditions: Staphylococcus aureus, 18 h, 35° C., read-out: MIC
Procedure: as §1

[4] = system: Staphylococcus aureus ATCC 25913; conditions: ATCC25913, 18 hours, 35° C.
Procedure: as §1

[5] = system: Morganella morganii VGH 84-11; conditions: VGH8411, 18 hours, 35° C., read-out: MIC
Procedure: as §1

[6] = system: Klebsiella pneumoniae MOR 84-4; conditions: Klebsiella pneumoniae, MOR844, 18 h, 35° C., read-out: MIC
Procedure: as §1

[7] = system: Proteus rettgeri CMC 84-41; conditions: Providencia rettgeri, CMC8441, 18 h, 35° C., read-out: MIC
Procedure: as §1

[8] = system: Enterobacter aerogenes VGH 84-36; conditions: Klebsiella aerogenes, VGH8436, 18 hours, 35° C., read-out: MIC
Procedure: as §1

[9] = system: Enterobacter cloacae VGH 84-37; conditions: Enterobacter cloacae, VGH8437, 18 h, 35° C., read-out: MIC
Procedure: as §1

Klebsiella pneumoniae AD = conditions: Klebsiella pneumoniae, 18 h, 35° C., read-out: MIC
Procedure: as §1

[10] = system: Escherichia coli ATCC 25922; conditions: Escherichia coli, ATCC25922, 18 h, 35° C., read-out: MIC
Procedure: as §1

SMILES | MIC [1] [µg/mL] | MIC [2] [µg/mL] | MIC [3] [µg/mL] | MIC [4] [µg/mL] | MIC [5] [µg/mL] | MIC [6] [µg/mL] | MIC [7] [µg/mL] | MIC [8] [µg/mL] | MIC [9] [µg/mL] | MIC (Klebsiella pneumoniae AD) [µg/mL] | MIC [10] [µg/mL]
CCn1cc(C(=O)O)c(=O)c2cc(F)c(N3CCNC(c4ccc(C)o4)C3)cc21 (centres unmarked) [Example 42, 1-Ethyl-6-fluoro-1,4-dihydro-7-[3-(5-methyl-2-furanyl)-1-piperazinyl]-4-oxo-3-quinolinecarboxylic acid] | 4 (≈ 10 µM) | ≤ 0.12 | ≤ 0.12 | ≤ 0.12 | 0.25 (≈ 0.626 µM) | 0.25 (≈ 0.626 µM) | 0.25 (≈ 0.626 µM) | 0.5 (≈ 1.25 µM) | 0.25 (≈ 0.626 µM) | ≤ 0.12 | 0.25 (≈ 0.626 µM)
CCn1cc(C(=O)O)c(=O)c2cc(F)c(N3CCN(C)C(COC)C3)cc21 (centres unmarked) [Example 10, 1-Ethyl-6-fluoro-1,4-dihydro-7-[3-(methoxymethyl)-4-methyl-1-piperazinyl]-4-oxo-3-quinolinecarboxylic acid] | 32 (≈ 84.8 µM) | 1 (≈ 2.65 µM) | 1 (≈ 2.65 µM) | 2 (≈ 5.3 µM) | 2 (≈ 5.3 µM) | 2 (≈ 5.3 µM) | 0.5 (≈ 1.32 µM) | 2 (≈ 5.3 µM) | 1 (≈ 2.65 µM) | 1 (≈ 2.65 µM) | 2 (≈ 5.3 µM)
CCn1cc(C(=O)O)c(=O)c2cc(F)c(N3CCNC(c4ccc(Cl)s4)C3)cc21 (centres unmarked) [Example 34, 7-[3-(5-Chloro-2-thienyl)-1-piperazinyl]-1-ethyl-6-fluoro-1,4-dihydro-4-oxo-3-quinolinecarboxylic acid] | 16 (≈ 36.7 µM) | 1 (≈ 2.29 µM) | 0.25 (≈ 0.574 µM) | 0.25 (≈ 0.574 µM) | 1 (≈ 2.29 µM) | 2 (≈ 4.59 µM) | 1 (≈ 2.29 µM) | 4 (≈ 9.18 µM) | 1 (≈ 2.29 µM) | 1 (≈ 2.29 µM) | 1 (≈ 2.29 µM)
CCn1cc(C(=O)O)c(=O)c2cc(F)c(N3CCN(C)C(c4cccs4)C3)cc21 (centres unmarked) [Example 31, 1-Ethyl-6-fluoro-1,4-dihydro-7-[4-methyl-3-(2-thienyl)piperazinyl]-4-oxo-3-quinolinecarboxylic acid] | 32 (≈ 77 µM) | 4 (≈ 9.63 µM) | 0.25 (≈ 0.602 µM) | 1 (≈ 2.41 µM) | 8 (≈ 19.3 µM) | 8 (≈ 19.3 µM) | 8 (≈ 19.3 µM) | 16 (≈ 38.5 µM) | 4 (≈ 9.63 µM) | 4 (≈ 9.63 µM) | 4 (≈ 9.63 µM)
CCn1cc(C(=O)O)c(=O)c2cc(F)c(N3CCNC(c4cc(C)cs4)C3)cc21 (centres unmarked) [Example 40, 1-Ethyl-6-fluoro-1,4-dihydro-7-[3-(4-methyl-2-thienyl)-1-piperazinyl]-4-oxo-3-quinolinecarboxylic acid] | 8 (≈ 19.3 µM) | 0.25 (≈ 0.602 µM) | ≤ 0.12 | 0.25 (≈ 0.602 µM) | 0.5 (≈ 1.2 µM) | 0.5 (≈ 1.2 µM) | 0.5 (≈ 1.2 µM) | 0.5 (≈ 1.2 µM) | 0.5 (≈ 1.2 µM) | 0.5 (≈ 1.2 µM) | 0.5 (≈ 1.2 µM)
CCn1cc(C(=O)O)c(=O)c2cc(F)c(N3CCNC(c4ccc(Br)s4)C3)cc21 (centres unmarked) [Example 13, 7-[3-(5-Bromo-2-thienyl)-1-piperazinyl]-1-ethyl-6-fluoro-1,4-dihydro-4-oxo-3-quinolinecarboxylic acid] | > 256 | 16 (≈ 33.3 µM) | 0.5 (≈ 1.04 µM) | 2 (≈ 4.16 µM) | 16 (≈ 33.3 µM) | 64 (≈ 133 µM) | 16 (≈ 33.3 µM) | > 256 | 32 (≈ 66.6 µM) | 16 (≈ 33.3 µM) | 16 (≈ 33.3 µM)
CCn1cc(C(=O)O)c(=O)c2cc(F)c(N3CCNC(CN(C)C)C3)cc21 (centres unmarked) [Example 2, 7-[3-[(Dimethylamino)methyl]-1-piperazinyl]-1-ethyl-6-fluoro-1,4-dihvdro-4-oxo-3-quinolinecarboxylic acid] | 16 (≈ 42.5 µM) | 2 (≈ 5.31 µM) | 0.5 (≈ 1.33 µM) | 2 (≈ 5.31 µM) | 2 (≈ 5.31 µM) | 4 (≈ 10.6 µM) | 2 (≈ 5.31 µM) | 4 (≈ 10.6 µM) | 1 (≈ 2.66 µM) | 2 (≈ 5.31 µM) | 2 (≈ 5.31 µM)
CCn1cc(C(=O)O)c(=O)c2cc(F)c(N3CCNC(COC)C3)cc21 (centres unmarked) [Example 7, 1-Ethyl-6-fluoro-1,4-dihydro-7-[3-(methoxymethyl)-1-piperazinyl]-4-oxo-3-quinolinecarboxylic acid] | 8 (≈ 22 µM) | 0.25 (≈ 0.688 µM) | 0.5 (≈ 1.38 µM) | 2 (≈ 5.5 µM) | 0.25 (≈ 0.688 µM) | 0.5 (≈ 1.38 µM) | 0.5 (≈ 1.38 µM) | 0.5 (≈ 1.38 µM) | 0.25 (≈ 0.688 µM) | 0.25 (≈ 0.688 µM) | 0.5 (≈ 1.38 µM)
CCn1cc(C(=O)O)c(=O)c2cc(F)c(N3CCNC(COc4ccccc4)C3)cc21 (centres unmarked) [Example 9, 1-Ethyl-6-fluoro-1,4-dihydro-4-oxo-7-[3-(phenoxy-methyl]-1-piperazinyl]-3-quinolinecarboxylic acid] | 8 (≈ 18.8 µM) | 0.5 (≈ 1.18 µM) | ≤ 0.12 | 0.5 (≈ 1.18 µM) | 0.5 (≈ 1.18 µM) | 0.5 (≈ 1.18 µM) | 0.5 (≈ 1.18 µM) | 1 (≈ 2.35 µM) | 0.25 (≈ 0.588 µM) | 0.5 (≈ 1.18 µM) | 0.5 (≈ 1.18 µM)
CCn1cc(C(=O)O)c(=O)c2cc(F)c(N3CCN(C)C(c4ccco4)C3)cc21 (centres unmarked) [Example 32, 1-Ethyl-6-fluoro-7-[3-(2-furanyl)-4-methyl-1-piperazinyl]-1,4-dihydro-4-oxo-3-quinolinecarboxylic acid] | 16 (≈ 40.1 µM) | 1 (≈ 2.5 µM) | 0.25 (≈ 0.626 µM) | 1 (≈ 2.5 µM) | 2 (≈ 5.01 µM) | 2 (≈ 5.01 µM) | 2 (≈ 5.01 µM) | 4 (≈ 10 µM) | 1 (≈ 2.5 µM) | 2 (≈ 5.01 µM) | 1 (≈ 2.5 µM)
CCn1cc(C(=O)O)c(=O)c2cc(F)c(N3CCN(C)C(c4ccsc4)C3)cc21 (centres unmarked) [Example 35, 1Ethyl-6-fluoro-1,4-dihydro-7-[4-methyl-3-(3-thienyl)-1-piperazinyl]-4-oxo-3-quinolinecarboxylic acid] | 32 (≈ 77 µM) | 1 (≈ 2.41 µM) | ≤ 0.12 | 0.5 (≈ 1.2 µM) | 2 (≈ 4.81 µM) | 4 (≈ 9.63 µM) | 2 (≈ 4.81 µM) | 4 (≈ 9.63 µM) | 2 (≈ 4.81 µM) | 2 (≈ 4.81 µM) | 2 (≈ 4.81 µM)
CCn1cc(C(=O)O)c(=O)c2cc(F)c(N3CCNC(c4cccs4)C3)cc21 (centres unmarked) [Example 26, 1-Ethyl-6-fluoro-1,4-dihydro-4-oxo-7-[3-(2-thienyl)-1-piperazinyl]-3-auinolinecarboxylic acid] | 16 (≈ 39.9 µM) | 0.5 (≈ 1.25 µM) | 0.25 (≈ 0.623 µM) | 0.5 (≈ 1.25 µM) | 0.5 (≈ 1.25 µM) | 1 (≈ 2.49 µM) | 1 (≈ 2.49 µM) | 2 (≈ 4.98 µM) | 0.5 (≈ 1.25 µM) | 1 (≈ 2.49 µM) | 1 (≈ 2.49 µM)
CCn1cc(C(=O)O)c(=O)c2cc(F)c(N3CCN(C)C(c4ccc(C)s4)C3)cc21 (centres unmarked) [Example 38, 1-Ethyl-6-fluoro-1,4-dihydro-7-[4-methyl-3-(5-methyl-2-thienyl)-1-piperazinyl]-4-oxo-3-quinolinecarboxylic acid] | > 256 | 4 (≈ 9.31 µM) | 0.25 (≈ 0.582 µM) | 0.25 (≈ 0.582 µM) | 8 (≈ 18.6 µM) | 8 (≈ 18.6 µM) | 4 (≈ 9.31 µM) | 4 (≈ 9.31 µM) | 8 (≈ 18.6 µM) | 4 (≈ 9.31 µM) | 4 (≈ 9.31 µM)
